# Experimental data as given in patent publication US20030022792A1, “HERBICIDAL COMPOSITIONS FOR TOLERANT OR RESISTANT CEREAL CROPS” (priority 1998, published 2003).
# How the values were obtained:
# Type in all cases: in vivo
# Lolium multiflorum = test: Field trial with cereal (wheat), herbicidal action; conditions: for Herbicidal action (%) against Lolium multiflorum: scoring 27 days after application
# Description: (§1) Transgenic cereal plants with a resistance to one or more herbicides (A) together with typical weed plants were grown in the open on 2×5 m plots under natural field conditions; alternatively, weed infestation occurred naturally when the cereal plants were grown.
# (§2) […] The damage to, and the development of, all aerial parts of the plants was recorded. Scoring was done on the basis of a percentage sale (100% action=all plants destroyed; 50% action=50% of the plants and green parts of the plants destroyed; 0% action=no recognizable effect=like control plot. The mean of the score values of in each case 4 plots was calculated.
# Ambrosia maritima = test: Field trial with cereal (wheat), herbicidal action; conditions: application at start of stocking, scoring 11 days after application
# Description: as §1, §2
# Lamium purpureum = test: Field trial with cereal (wheat), herbicidal action; conditions: application at 4-leaf stage, scoring 28 days after application
# Description: as §1
# (§3) 2, 4, 6 and 8 weeks after the application, the herbicidal activity of the active substances or active substance mixtures was scored visually with reference to the treated plots in comparison to untreated control plots. The damage to, and the development of, all aerial parts of the plants was recorded. Scoring was done on the basis of a percentage sale (100% action=all plants destroyed; 50% action=50% of the plants and green parts of the plants destroyed; 0% action=no recognizable effect=like control plot. The mean of the score values of in each case 4 plots was calculated.
# Galium aparine = test: Field trial with cereal (wheat), herbicidal action; conditions: application at 4-leaf stage, scoring 28 days after application
# Description: as §1, §3
# Digitaria Sanguinalis = test: Field trial with cereals (wheat), herbicidal action; conditions: application at start of stocking, scoring 3 weeks after application
# Description: as §1, §2
# Alopecurus myosuroides = test: as above; conditions: application at start of stocking, scoring 3 weeks after application
# Description: as §1, §2
# [1] = Lolium multiflorum, read-out: Herbicidal action (%) against Lolium multiflorum
compound,measurement,setting,value
"CCS(=O)(=O)c1nc2ccccn2c1S(=O)(=O)NC(=O)Nc1nc(OC)cc(OC)n1 [(B2.6), sulfosulfuron]",pest or weed control at 20 g/ha,"Lolium multiflorum; Lolium multiflorum, wheat field trial, 20 g of a.s./ha, application at 3-leaf stage, scoring after application, read-out: Herbicidal action (%) against Lolium multiflorum",35%
"CP(=O)(O)CCC(N)C(=O)O (centres unmarked) [(A1.2), glufosinate-ammonium]",Herbicidal action (%) against Ambrosia maritima,Ambrosia maritima; 200 g of a.s./ha,58%
same,Herbicidal action (%) against Ambrosia maritima,Ambrosia maritima; 400 g of a.s./ha,100%
same,Herbicidal action (%) against Ambrosia maritima,Ambrosia maritima; 600 g of a.s./ha,100%
same,pest or weed control at 200 g/ha,Lolium multiflorum; [1],0%
same,pest or weed control at 330 g/ha,Lolium multiflorum; [1],15%
same,pest or weed control at 500 g/ha,Lolium multiflorum; [1],78%
same,Herbicidal action (%) against Lamium purpureum,Lamium purpureum; 200 g of a.s./ha,8%
same,Herbicidal action (%) against Lamium purpureum,Lamium purpureum; 330 g of a.s./ha,35%
same,Herbicidal action (%) against Galium aparine,Galium aparine; 100 g of a.s./ha,0%
same,Herbicidal action (%) against Galium aparine,Galium aparine; 200 g of a.s./ha,0%
same,Herbicidal action (%) against Galium aparine,Galium aparine; 300 g of a.s./ha,0%
same,Herbicidal action (%) against Digitaria Sanguinalis,Digitaria Sanguinalis; 200 g of a.s./ha,45%
same,Herbicidal action (%) against Digitaria Sanguinalis,Digitaria Sanguinalis; 400 g of a.s./ha,90%
same,Herbicidal action (%) against Digitaria Sanguinalis,Digitaria Sanguinalis; 600 g of a.s./ha,99%
same,Herbicidal action (%) against Alopecurus myosuroides,Alopecurus myosuroides; 200 g of a.s./ha,55%
same,Herbicidal action (%) against Alopecurus myosuroides,Alopecurus myosuroides; 400 g of a.s./ha,83%
same,Herbicidal action (%) against Alopecurus myosuroides,Alopecurus myosuroides; 600 g of a.s./ha,93%
"Nc1c(Cl)c(F)nc(OCC(=O)O)c1Cl [(B4.2.5), fluroxypyr]",Herbicidal action (%) against Galium aparine,Galium aparine; 120 g of a.s./ha,75%
"COC(=O)c1ccccc1S(=O)(=O)NC(=O)Nc1nc(C)nc(OC)n1 [(B2.1), metsulfuron-methyl]",Herbicidal action (%) against Lamium purpureum,Lamium purpureum; 3 g of a.s./ha,75%
"COc1cc(OC)nc(NC(=O)NS(=O)(=O)c2nc(C(F)(F)F)ccc2C(=O)O)n1 [(B1.2.6), flupyrsulfuron]",pest or weed control at 7.5 g/ha,Lolium multiflorum; [1],25%
"COc1cc(OC)nc(NC(=O)NS(=O)(=O)N(C)S(C)(=O)=O)n1 [(B4.1.2), amidosulfuron]",Herbicidal action (%) against Galium aparine,Galium aparine; 20 g of a.s./ha,75%
"N#Cc1cc(Br)c(O)c(Br)c1 [(B4.3.1), bromoxynil]",Herbicidal action (%) against Lamium purpureum,Lamium purpureum; 180 g of a.s./ha,55%
same,Herbicidal action (%) against Lamium purpureum,Lamium purpureum; 360 g of a.s./ha,83%
"Cc1cc(Cl)ccc1O[C@@H](C)C(=O)O [(B4.2.2), CMPP-P]",Herbicidal action (%) against Galium aparine,Galium aparine; 750 g of a.s./ha,73%
"COC(=O)C(C)Oc1ccc(Oc2ccc(Cl)cc2Cl)cc1 (centres unmarked) [(B1.2.3), diclofop-methyl]",Herbicidal action (%) against Lolium multiflorum,"Lolium multiflorum; wheat field trial, 500 g of a.s./ha, application at 3-leaf stage",60%
same,Herbicidal action (%) against Lolium multiflorum,"Lolium multiflorum; wheat field trial, 750 g of a.s./ha, application at 3-leaf stage",83%
"COC(=O)c1ccccc1S(=O)(=O)NC(=O)N(C)c1nc(C)nc(OC)n1 [(B4.1.1), tribenuron-methyl]",Herbicidal action (%) against Lamium purpureum,Lamium purpureum; 15 g of a.s./ha,68%
"Cc1cc(Cl)ccc1OCC(=O)O [(B4.2.4), MCPA]",Herbicidal action (%) against Ambrosia maritima,Ambrosia maritima; 500 g of a.s./ha,0%
"CCC(CC)Nc1c([N+](=O)[O-])cc(C)c(C)c1[N+](=O)[O-] [(B1.1.5), pendimethalin]",Herbicidal action (%) against Lamium purpureum,Lamium purpureum; 960 g of a.s./ha,75%
"CCOC(=O)/C(Cl)=C/c1cc(N2C(=O)C3=C(CCCC3)C2=O)ccc1Cl [(B4.1.6), cinidon-ethyl]",Herbicidal action (%) against Galium aparine,Galium aparine; 35 g of a.s./ha,65%
"CCOC(=O)COc1cc(-c2nn(C)c(OC(F)F)c2Cl)c(F)cc1Cl [(B4.4.2), pyraflufen-ethyl]",Herbicidal action (%) against Digitaria Sanguinalis,Digitaria Sanguinalis; 10 g of a.s./ha,0%
same,Herbicidal action (%) against Alopecurus myosuroides,Alopecurus myosuroides; 10 g of a.s./ha,0%
"CCOC(=O)C(Cl)Cc1cc(-n2nc(C)n(C(F)F)c2=O)c(F)cc1Cl (centres unmarked) [(B4.4.1), carfentrazone-ethyl]",Herbicidal action (%) against Galium aparine,Galium aparine; 10 g of a.s./ha,45%
same,Herbicidal action (%) against Galium aparine,Galium aparine; 20 g of a.s./ha,55%
"CC(C)c1ccc(NC(=O)N(C)C)cc1 [(B1.1.1), isoproturon]",pest or weed control at 1500 g/ha,"Lolium multiflorum; Lolium multiflorum, wheat field trial, 1500 g of a.s./ha, application at 3-leaf stage, scoring after application, read-out: Herbicidal action (%) against Lolium multiflorum",55%
"O=C(Nc1ccc(F)cc1F)c1cccnc1Oc1cccc(C(F)(F)F)c1 [Diflu, diflufenican]",pest or weed control at 150 g/ha,"Lolium multiflorum; Lolium multiflorum, wheat field trial, 150 g of a.s./ha, application at 3-leaf stage, scoring after application, read-out: Herbicidal action (%) against Lolium multiflorum",35%
"CCc1cnc(C2=NC(C)(C(C)C)C(=O)N2)c(C(=O)O)c1 (centres unmarked) [(A3.2), imazethapyr]",pest or weed control at 70 g/ha,"Lolium multiflorum; Lolium multiflorum, wheat field trial, 70 g of a.s./ha, application at 3-leaf stage, scoring after application, read-out: Herbicidal action (%) against Lolium multiflorum",0%
"C#CCOC(=O)[C@@H](C)Oc1ccc(Oc2ncc(Cl)cc2F)cc1 [(B1.2.2), clodinafop-propargyl]",pest or weed control at 50 g/ha,"Lolium multiflorum; Lolium multiflorum, wheat field trial, 50 g of a.s./ha, application at 3-leaf stage, scoring after application, read-out: Herbicidal action (%) against Lolium multiflorum",73%
"CC(C)N(C(=O)COc1nnc(C(F)(F)F)s1)c1ccc(F)cc1 [(B1.1.3), fluthiamide]",pest or weed control at 180 g/ha,"Lolium multiflorum; Lolium multiflorum, wheat field trial, 180 g of a.s./ha, application at 3-leaf stage, scoring after application, read-out: Herbicidal action (%) against Lolium multiflorum",25%
"COC(=O)c1ccc(NS(C)(=O)=O)cc1S(=O)(=O)NC(=O)Nc1nc(OC)cc(OC)n1 [(B2.3), methyl 4-methylsulfonylamino-2-(4,6-dimethoxypyrimidin-2-ylcarbamoylsulfamoyl)benzoate]",pest or weed control at 5 g/ha,"Lolium multiflorum; Lolium multiflorum, wheat field trial, 5 g of a.s./ha, application at 3-leaf stage, scoring after application, read-out: Herbicidal action (%) against Lolium multiflorum",65%
